Measured values as given in patent publication US4663344A, “Anti-inflammatory and analgesic 3-hydroxybenzo[b]thiophene derivatives, compositions, and method of use therefor” (Merck & Co., Inc., priority 1985, dated 1987).

Biological target: T1, RBL Cell 5-Lipoxygenase (Rattus norvegicus, UniProt P12527)
T1 construct: RBL Cell 5-Lipoxygenase; endogenous in cells; host or cells: RBL cells
T1 sequence (P12527 1-673): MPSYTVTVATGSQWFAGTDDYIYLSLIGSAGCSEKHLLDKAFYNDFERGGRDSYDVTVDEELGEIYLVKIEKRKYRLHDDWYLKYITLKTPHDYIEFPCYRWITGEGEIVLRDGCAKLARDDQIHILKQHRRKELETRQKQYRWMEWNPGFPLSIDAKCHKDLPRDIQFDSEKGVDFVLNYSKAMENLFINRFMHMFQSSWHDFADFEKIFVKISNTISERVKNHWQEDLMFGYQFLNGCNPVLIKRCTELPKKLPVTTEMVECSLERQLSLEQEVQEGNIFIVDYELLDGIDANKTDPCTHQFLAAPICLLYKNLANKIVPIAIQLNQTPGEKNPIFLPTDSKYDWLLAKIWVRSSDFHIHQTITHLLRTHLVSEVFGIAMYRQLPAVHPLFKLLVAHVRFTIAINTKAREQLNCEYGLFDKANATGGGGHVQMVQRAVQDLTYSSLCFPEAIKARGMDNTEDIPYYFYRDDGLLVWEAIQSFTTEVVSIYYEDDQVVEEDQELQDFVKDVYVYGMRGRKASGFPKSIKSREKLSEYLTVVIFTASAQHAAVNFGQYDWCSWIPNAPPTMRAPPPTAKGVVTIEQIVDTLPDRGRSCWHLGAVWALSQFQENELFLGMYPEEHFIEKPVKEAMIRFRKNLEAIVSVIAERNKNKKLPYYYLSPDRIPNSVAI
Assay: Inhibition of RBL Cell 5-Lipoxygenase
Format: biochemical
Details: read-out: Percent Inhibition (conc.)
From the text: Protocol published in R. W. Egan et al., "Advances in Prostaglandin, Thromboxane, and Leukotriene Research," Vol. 11 (edited by B. Samuelson et al., Raren Press, N.Y., 1983), p. 151.

Structure (SMILES) | inhibition at 15 µM [%] | also measured
CC(=O)Oc1cccc2sc(-c3ccccc3)c(OC(C)=O)c12 [Example 7, 3,4-Diacetoxy-2-Phenylbenzo[b]thiophene] |  | inhibition at 1 µM: > 95%
CC(=O)Oc1c(Cc2ccccc2)sc2ccc(Cl)cc12 [Example 2, 3-Acetoxy-2-Benzyl-5-Chlorobenzo[b]thiophene] | > 95 | 
COC(=O)C=Cc1sc2ccccc2c1OC(C)=O [Example 21, Methyl 3(3-acetoxybenzo[b]thiophen-2-yl)acrylate] |  | inhibition at 0.036 µM (0.036 μM): 71%
Oc1c(-c2ccccc2)sc2ccc(Cl)cc12 [Example 18, 5-Chloro-3-hydroxy-2-phenylbenzo[b]thiophene] | > 95 | 
COc1ccc(-c2sc3ccc(C(F)(F)F)cc3c2O)cc1 [Example 15, 3-Hydroxy-2-(p-methoxyphenyl)-5-trifluoromethylbenzo[b]thiophene] | > 95 | 
CC(=O)Oc1c(C)sc2ccc(C(F)(F)F)cc12 [Example 23, 2-Methyl-3-Acetoxy-5-trifluoromethylbenzo[b]thiophene] |  | inhibition at 0.4 µM (0.4 μM): 100%
CC(=O)Oc1c(CSc2nc(-c3ccccc3)c(-c3ccccc3)[nH]2)sc2ccccc12 [Example 25, 2-(3-acetoxybenzo[b]thien-2-ylmethyl)thio-4,5-diphenylimidazole] |  | inhibition at 22 µM: 52%
Cc1cccc(-c2sc3ccc(C(F)(F)F)cc3c2O)c1 [Example 16, 3-Hydroxy-2-(m-methylphenyl)-5-trifluoromethylbenzo[b]thiophene] |  | inhibition at 1 µM: > 95%
Oc1cccc2sc(-c3ccccc3)c(O)c12 [Example 8, 3,4-dihydroxy-2-phenylbenzo[b]thiophene] | > 95 | 
CC(=O)Oc1c(C=C(c2ccccc2)c2ccccc2)sc2ccc(C(F)(F)F)cc12 [Example 27, 2-(2,2-diphenylethenyl)-3-acetoxy-5-trifluoromethyl benzo[b]thiophene] |  | inhibition at 22 µM: 95%
CCCCc1sc2ccc(Cl)cc2c1OC(C)=O [Example 1, 3-Acetoxy-2-Butyl-5-Chlorobenzo[b]thiophene] | > 95 | 
Oc1c(-c2cccc(Cl)c2)sc2ccc(C(F)(F)F)cc12 [Example 12, 3-Hydroxy-2-(m-chlorophenyl)-5-trifluoromethyl-benzo[b]thiophene] | > 95 | 
CC(=O)Oc1c(-c2ccccc2)sc2ccc(C(F)(F)F)cc12 [Example 5, 3-Acetoxy-2-Phenyl-5-Trifluoromethylbenzo[b]thiophene] | > 95 | 
COc1cccc2sc(-c3ccccc3)c(O)c12 [Example 6, 3-Hydroxy-4-Methoxy-2-Phenylbenzo[b]thiophene] | > 95 | 
COC(=O)CCc1sc2ccc(C(F)(F)F)cc2c1OC(C)=O [Example 22] |  | inhibition at 0.06 µM (0.06 μM): > 95%
COC(=O)C=Cc1sc2ccccc2c1O [Example 20, Methyl 3-(3-hydroxybenzo[b]thiophen-2-yl)acrylate] |  | inhibition at 3.6 µM (3.6 μM): 100%
Oc1c(-c2cccc(C(F)(F)F)c2)sc2ccc(C(F)(F)F)cc12 [Example 11, 3-Hydroxy-5-Trifluoromethyl-2-(m-trifluoromethylphenyl)-Benzo[b]thiophene] | > 95 | 
Oc1c(-c2ccccc2)sc2ccc(C(F)(F)F)cc12 [Example 4, 3-Hydroxy-2-phenyl-5-trifluoromethylbenzo[b]thiophene] |  | inhibition at 5 µM (5 μM): > 95%
